Source: patent US10407467B2, “Polymyxin derivatives and their use in combination therapy together with different antibiotics” (priority 2013, dated 2019)
Counter-ions that a name gives are not always drawn. Like-named read-outs stand apart in the source and are kept apart here. Blank lines part the entries; values can stand above or below the molecule they belong to. Bridge positions count the residues as written; N and C are the ends. Square brackets hold non-standard residues; d marks the D form. Peptide text beside a SMILES is read from it. * marks the point of attachment. ξ: configuration not given here. Acetyl(3-pyridyl) = O=C(Cc1cccnc1)*; Thr(3ξ) = CC(O)[C@H](N)C(=O)O; Dab = NCC[C@H](N)C(=O)O; Bz = O=C(c1ccccc1)*

Key:
Format in all cases: cell-based
[1] = tested on: Klebsiella pneumoniae; assay: MIC, compound in combination with a second agent (broth microdilution); settings: 1:1 (wt:wt) combination with Rifampicin; MIC is total drug concentration
Description: (§1) To evaluate the potency and spectrum of the compounds both alone and in combination with another agent, susceptibility testing was performed against up to four strains of each of the four Gram negative pathogens, Escherichia coli, Pseudomonas aeruginosa, Klebsiella pneumoniae and Acinetobacter baumannii.
(§2) Ratios of components in a combination, such as 1:1, refers to a weight to weight ratio. The minimum inhibitory concentration (MIC) refers to the total drug concentration (e.g. test compound plus second agent, such as Rifampicin).
(§3) The inoculum was prepared by making a direct suspension of isolated colonies (selected from an 18-24 hour Mueller-Hinton agar plate) adjusted to the 0.5 McFarland standard.
(§4) The assays were performed in duplicate.
(§5) In cases where the duplicate values varied by less than 2-fold, the lower of the two values is reported. If a variation of greater than 2-fold was observed, the assay was considered non-valid. Several of the compounds were subjected to multiple tests, and where this is the case, the MIC reflects the modal value obtained.
(§6) The minimum inhibitory concentration refers to the total drug concentration (e.g. test compound plus Rifampicin). The compounds are used at equal mass within the combination. The weight refers to the mass of compound as used, for example the Example Compounds are used in their TFA or sulphate salt forms.
(§7) MICs refer to the total drug concentration. Thus, where a 1:1 combination is used, this is the amount of the test compound plus the second agent. For comparison, the MIC values for the second agent alone are also given.

[2] = tested on: Pseudomonas aeruginosa; assay: as above; settings: 1:1 (wt:wt) combination with Rifampicin; MIC is total drug concentration
Description: as §1, §2, §3, §4, §5, §6, §7

[3] = tested on: Klebsiella pneumoniae; assay: MIC, sole activity (no second agent); settings: Klebsiella pneumoniae
Description: as §1, §3, §4, §5
(§8) MICs were determined as described herein, except that a different supplier of Cation-adjusted MHB was used. […] Values are reported relative to Polymyxin B.

[4] = tested on: Escherichia coli; assay: MIC, sole activity (no second agent); settings: Escherichia coli
Description: as §1, §3, §4, §5, §8

[5] = tested on: Pseudomonas aeruginosa; assay: MIC, sole activity (no second agent); settings: Pseudomonas aeruginosa
Description: as §1, §3, §4, §5, §8

[6] = CCUG59348, read-out: MIC K. pneumoniae CCUG 59348
[7] = NCTC13442, read-out: MIC K. pneumoniae NCTC 13442
[8] = NCTC9001, read-out: MIC E. coli NCTC9001

SMILES: CC(C)C[C@@H]1NC(=O)[C@@H](Cc2ccccc2)NC(=O)[C@H](CCN)NC(=O)[C@@H](NC(=O)[C@H](CCN)NC(=O)[C@@H](NC(=O)c2ccccc2)C(C)O)CCNC(=O)[C@H](C(C)O)NC(=O)[C@H](CCN)NC(=O)[C@H](CCN)NC1=O (stereo partly shown) [Example C3, Benzoyl polymyxin B nonapeptide, sulphate salt, reference compound] (Bz-[Thr(3ξ)][Dab][Dab][Dab][dF]L[Dab][Dab][Thr(3ξ)]; lactam 3-C)
- MIC K. pneumoniae ATCC-BAA-2146 [1]: 2 micrograms/mL
- MIC K. pneumoniae CCUG-59348 [1]: 8 micrograms/mL
- MIC K. pneumoniae NCTC 13438 [1]: 2 micrograms/mL
- MIC P. aeruginosa CCUG 59626 [2]: 1 micrograms/mL

- MIC K. pneumoniae ATCC-BAA-2146 [1]: 1 micrograms/mL
- MIC K. pneumoniae CCUG-59348 [1]: 4 micrograms/mL
- MIC K. pneumoniae NCTC 13438 [1]: 2 micrograms/mL
- MIC P. aeruginosa CCUG 59626 [2]: 0.25 micrograms/mL
SMILES: CC(C)C[C@@H]1NC(=O)[C@@H](Cc2ccccc2)NC(=O)[C@H](CCN)NC(=O)[C@@H](NC(=O)[C@H](CCN)NC(=O)[C@@H](NC(=O)Cc2cccnc2)C(C)O)CCNC(=O)[C@H](C(C)O)NC(=O)[C@H](CCN)NC(=O)[C@H](CCN)NC1=O (stereo partly shown) [Example C5, 3-pyridyl ethanoyl polymyxin B nonapeptide, reference compound] ({Acetyl(3-pyridyl)}-[Thr(3ξ)][Dab][Dab][Dab][dF]L[Dab][Dab][Thr(3ξ)]; lactam 3-C)

- MIC ([3]; Table 7I, K. pneumoniae ATCC4352, second agent none, read-out: MIC K. pneumoniae (ATCC4352)): 16 µg/mL
- MIC ([4]; Table 7I, E. coli ATCC25922, second agent none, read-out: MIC E. coli (ATCC25922)): > 32 µg/mL
SMILES: CC(=O)O[C@H]1C[C@@]2(C)[C@@H](C[C@@H](O)[C@H]3[C@@]4(C)CC[C@@H](O)[C@@H](C)[C@@H]4CC[C@@]32C)/C1=C(\CCC=C(C)C)C(=O)O [Fusidic acid, reference compound]

- MIC ([3]; ATCCBAA1706, K. pneumoniae ATCC BAA-1706, second agent none, read-out: MIC K. pneumoniae ATCC BAA-1706): 16 µg/mL
- MIC ([3]; CCUG59348, K. pneumoniae CCUG 59348, second agent none, read-out: MIC K. pneumoniae CCUG 59348): > 32 µg/mL
- MIC ([3]; NCTC13442, K. pneumoniae NCTC 13442, second agent none, read-out: MIC K. pneumoniae NCTC 13442): 16 µg/mL
- MIC ([4]; E. coli NCTC9001, second agent none, read-out: MIC E. coli (NCTC9001)): 0.125 µg/mL
- MIC ([5]; CCUG59626, P. aeruginosa CCUG 59626, second agent none, read-out: MIC P. aeruginosa CCUG 59626): 16 µg/mL
SMILES: C[C@@H](O)[C@H]1C(=O)N2C(C(=O)O)=C(S[C@@H]3CN[C@H](C(=O)N(C)C)C3)[C@H](C)[C@H]12 [Meropenem, reference compound]

SMILES: Cc1onc(-c2ccccc2)c1C(=O)N[C@@H]1C(=O)N2[C@@H]1SC(C)(C)[C@@H]2C(=O)O [Oxacillin, reference compound]
- MIC ([3]; Table 7G, K. pneumoniae ATCC4352, second agent none, read-out: MIC K. pneumoniae (ATCC4352)): 16 µg/mL
- MIC ([4]; Table 7G, E. coli ATCC25922, second agent none, read-out: MIC E. coli (ATCC25922)): > 32 µg/mL

SMILES: CN(C)c1cc(NC(=O)CNC(C)(C)C)c(O)c2c1C[C@H]1C[C@H]3[C@H](N(C)C)C(O)=C(C(N)=O)C(=O)[C@@]3(O)C(O)=C1C2=O [Tigecycline, reference compound]
- MIC [3, 6]: 2 µg/mL
- MIC [3, 7]: 2 µg/mL
- MIC [4, 8]: 0.125 µg/mL
- MIC ([5]; CCUG59626, read-out: MIC P. aeruginosa CCUG 59626): 16 µg/mL

SMILES: CN[C@H](CC(C)C)C(=O)N[C@H]1C(=O)N[C@@H](CC(N)=O)C(=O)N[C@H]2C(=O)N[C@H]3C(=O)N[C@H](C(=O)N[C@H](C(=O)O)c4cc(O)cc(O)c4-c4cc3ccc4O)[C@H](O)c3ccc(c(Cl)c3)Oc3cc2cc(c3O[C@@H]2O[C@H](CO)[C@@H](O)[C@H](O)[C@H]2O[C@H]2C[C@](C)(N)[C@H](O)[C@H](C)O2)Oc2ccc(cc2Cl)[C@H]1O [Vancomycin, reference compound]
- MIC [3, 6]: > 32 µg/mL
- MIC ([3]; CCUG59626, read-out: MIC K. pneumoniae CCUG 59626): > 32 µg/mL
- MIC [3, 7]: > 32 µg/mL
- MIC [4, 8]: > 32 µg/mL
